Reference: patent US8697728B2, “Perhexiline for use in the treatment of hypertrophic cardiomyopathy (HCM)” (The University of Birmingham, priority 2009, dated 2014)

How the values were obtained:
[1] = tested on: symptomatic HCM patients; assay: Cardiopulmonary exercise test (peak oxygen consumption), randomized double-blind placebo-controlled study; format: in vivo, human; conditions: p=0.003 vs placebo
Excerpt: (§1) The study was approved by the South Birmingham Research Ethics Committee and the investigation conforms with the principles outlined in the Declaration of Helsinki. All study participants provided written informed consent. The study was a randomized, double blind, placebo-controlled parallel-group design of minimum 3 months duration. FIG. 1 represents a flow chart of the study. The pre-defined primary end point was peak oxygen consumption (peak VO2). Pre-defined secondary end points were symptomatic status, resting myocardial energetics (PCr/γ-ATP ratio) and diastolic function at rest and during exercise (nTTPF). 33 controls of similar age and gender distribution were recruited for comparison with baseline data of HCM patients. […]
Following baseline studies, patients were randomized in a double-blind fashion to receive either perhexiline (n=25) or placebo (n=21) 100 mg OD. […] At the end of study, patients were re-evaluated as described earlier.
Data were analyzed using SPSS ver. 15.0 for Window and Microsoft Office Excel 2007, and expressed as Mean±Standard Deviation (SD). Comparison of continuous variables between Perhexiline and Placebo baseline data were determined by unpaired Student's t-test (2-tail) if variables were normally distributed and the Mann-Whitney U-test if the data were non-normally distributed. […]

[2] = tested on: symptomatic HCM patients; assay: Radionuclide ventriculography (diastolic ventricular filling, nTTPF); format: in vivo, human; conditions: perhexiline group, p=0.03 vs placebo response
Excerpt: as §1, with “(nTTPF).” for “(nTTPF). 33 controls of similar age and gender distribution were recruited for comparison with baseline data of HCM patients.”
Diastolic filling were assessed by equilibrium R-wave gated blood pool scintigraphy using a standard technique at rest and during graded semi erect exercise on a cycle ergometer (Atherton J J, Moore T D, Lele S S et al. Diastolic ventricular interaction in chronic heart failure. Lancet 1997;349 (9067):1720-1724; Lele S S, Macfarlane D, Morrison S, Thomson H, Khafagi F, Frenneaux M. Determinants of exercise capacity in patients with coronary artery disease and mild to moderate systolic dysfunction. Role of heart rate and diastolic filling abnormalities. Eur Heart J 1996;17(2):204-212). […]
Data were analyzed using SPSS ver. 15.0 for Window and Microsoft Office Excel 2007, and expressed as Mean±Standard Deviation (SD). […]

[3] = tested on: symptomatic HCM patients; assay: Side effects and deaths during the study; format: in vivo; conditions: perhexiline group (n=25), during the first week of treatment
Excerpt: The study was a randomized, double blind, placebo-controlled parallel-group design of minimum 3 months duration. […] The pre-defined primary end point was peak oxygen consumption (peak VO2). Pre-defined secondary end points were symptomatic status, resting myocardial energetics (PCr/γ-ATP ratio) and diastolic function at rest and during exercise (nTTPF).
Diabetic patients were also excluded to maintain the blindness of the study as Perhexiline may lead to a reduction in plasma glucose in such patients necessitating a reduction in anti-diabetic therapy. 46 consecutive consenting patients who met these entry criteria were recruited into the study.
Following baseline studies, patients were randomized in a double-blind fashion to receive either perhexiline (n=25) or placebo (n=21) 100 mg OD. Serum perhexiline levels were obtained at 1 and 4 weeks after initiation of the drug. Dose adjustments were advised by an unblinded physician according to serum level to achieve therapeutic level and to avoid drug toxicity. Identical dosage adjustments were also made for randomly allocated placebo-treated patients by the unblinded observer to ensure that blinding of the investigators was maintained. At the end of study, patients were re-evaluated as described earlier.

For `C1CCC(C(CC2CCCCN2)C2CCCCC2)CC1` (centres unmarked) [perhexiline, 2-(2,2-dicyclohexylethyl) piperidine], the “Effect on peak oxygen consumption (peak VO2, exercise capacity), in words” value ([1]; FIG. 3A legend) was “increases”, the “Change in Peak VO2 after treatment (increase)” value ([1]; HCM patients, perhexiline group, after treatment vs baseline) was 0.125 L/h/kg and the “εnTTPF (change of nTTPF from rest to exercise) on therapy” value [2] was 0.00 ± 0.003 s. For the same compound, the “Side effect: dizziness (number of patients)” value [3] was 2 and the “Side effect: transient nausea (number of patients)” value [3] was 3.
